Data as given in patent US8389523B2, “Substituted quinoxaline and an agrochemical composition thereof” (Kumiai Chemical Industry Co., Ltd., priority 2007, dated 2013).

How the values were obtained:
Assay type in all cases: in vivo
Set-up in all cases: scale not given here
[1] = tested on: Scirpus juncoides Roxb. var. ohwianus. T. Koyama; assay: Herbicidal effects in paddy field soil treatment (Test Example 1); details: for Herbicidal effects index, Scirpus juncoides Roxb. var. ohwianus. T. Koyama: paddy field soil treatment, 1000 g of the active ingredient per hectare, wettable powder added dropwise on water surface, 21st day after treatment
Procedure, shortened: (§1)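 Application rate was 1000 g active ingredient per hectare, delivered as a diluted wettable powder onto the surface of 3 cm flood water, the day after seeds were sown in paddy soil. Effects were rated 21 days later.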

[2] = tested on: Echinochloa oryzicola Vasing; assay: as above; details: for Herbicidal effects index, Echinochloa oryzicola Vasing: paddy field soil treatment, 1000 g of the active ingredient per hectare, wettable powder added dropwise on water surface, 21st day after treatment
Procedure, shortened: as §1

[3] = tested on: Monochoria vaginalis (Burm. f.) Presl var. plantaginea (Roxb.) Solms-Laub.; assay: as above; details: for Herbicidal effects index, Monochoria vaginalis (Burm. f.) Presl var. plantaginea (Roxb.) Solms-Laub.: paddy field soil treatment, 1000 g of the active ingredient per hectare, wettable powder added dropwise on water surface, 21st day after treatment
Procedure, shortened: as §1

[4] = tested on: Echinochloa crus-galli (L.) P. Beauv. var. crus-galli; assay: Herbicidal effects in upland field foliar treatment (Test Example 3); details: criteria of Table 138; for herbicidal effects on Echinochloa crus-galli (L.) P. Beauv. var. crus-galli: 1000 g of the active ingredient per hectare, 14th day after the treatment, wettable powder; for herbicidal effect (index) on Echinochloa crus-galli (L.) P. Beauv. var. crus-galli: 1000 g active ingredient per hectare, 14th day after treatment
Procedure, shortened: (§2)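 Dose was 1000 g of active ingredient per hectare, sprayed as a wettable powder in water at a volume of 1000 L/ha onto foliage of two-week-old greenhouse-grown plants in upland soil. Damage was assessed against rating criteria on the 14th day.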

[5] = tested on: Abutilon theophrasti medicus; assay: as above; details: criteria of Table 138; for herbicidal effects on Abutilon theophrasti medicus: 1000 g of the active ingredient per hectare, 14th day after the treatment, wettable powder; for herbicidal effect (index) on Abutilon theophrasti medicus: 1000 g active ingredient per hectare, 14th day after treatment
Procedure, shortened: as §2

Amaranthus viridis L. [6] = assay: as above; details: criteria of Table 138; for herbicidal effects on Amaranthus viridis L.: 1000 g of the active ingredient per hectare, 14th day after the treatment, wettable powder; for herbicidal effect (index) on Amaranthus viridis L.: 1000 g active ingredient per hectare, 14th day after treatment
Procedure, shortened: as §2

[7] = tested on: Abutilon theophrasti medicus; assay: Herbicidal effects in upland field soil treatment (Test Example 2); details: 1000 g active ingredient per hectare, 21st day after treatment, criteria of Table 138
Procedure, shortened: (§3)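 A wettable powder formulation, diluted with water, is applied to the soil surface after sowing and covering seeds in upland field soil, at a rate of 1000 g active ingredient per hectare. After greenhouse growth, herbicidal activity is graded by criteria at 21 days.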

Amaranthus viridis L. [8] = assay: as above; details: 1000 g active ingredient per hectare, 21st day after treatment, criteria of Table 138
Procedure, shortened: as §3

[9] = paddy field soil treatment (Test Example 1), criteria of Table 138

| Structure (SMILES) | Herbicidal effects index, Scirpus juncoides Roxb. var. ohwianus. T. Koyama [1] | Herbicidal effects index, Echinochloa oryzicola Vasing [2] | Herbicidal effects index, Monochoria vaginalis (Burm. f.) Presl var. plantaginea (Roxb.) Solms-Laub. [3] | herbicidal effects on Echinochloa crus-galli (L.) P. Beauv. var. crus-galli [4] | herbicidal effects on Abutilon theophrasti medicus [5] | herbicidal effects on Amaranthus viridis L. (Amaranthus viridis L. [6]) | herbicidal effect (index) on Abutilon theophrasti medicus [7] | herbicidal effect (index) on Amaranthus viridis L. (Amaranthus viridis L. [8]) | herbicidal effect (index) on Echinochloa crus-galli (L.) P. Beauv. var. crus-galli [4] | herbicidal effect (index) on Abutilon theophrasti medicus [5] | herbicidal effect (index) on Amaranthus viridis L. (Amaranthus viridis L. [6]) | herbicidal effect (index) on Scirpus juncoides Roxb. var. ohwianus. T. Koyama [1, 9] | herbicidal effect (index) on Echinochloa oryzicola Vasing [2, 9] | herbicidal effect (index) on Monochoria vaginalis (Burm. f.) Presl var. plantaginea (Roxb.) Solms-Laub. [3, 9] |
| --- | --- | --- | --- | --- | --- | --- | --- | --- | --- | --- | --- | --- | --- | --- |
| O=C(C1=C(O)C2CCC(C2)C1=O)c1nc2cccnc2n(-c2ccccc2)c1=O (stereo not drawn) [IV-4] | 5 | 5 | 5 | 5 | 5 | 5 | 5 | 5 |  |  |  |  |  |  |
| N#Cc1cccc(-n2c(=O)c(C(=O)C3=C(O)CCCC3=O)nc3ccccc32)c1 [II-136] | 5 | 5 | 5 | 5 | 5 | 5 | 5 | 5 |  |  |  |  |  |  |
| O=C1CCCC(O)=C1C(=O)c1nc2cccnc2n(-c2ccccc2F)c1=O [IV-6] | 5 | 4 | 5 | 4 | 5 | 5 | 5 | 5 |  |  |  |  |  |  |
| N#CCn1c(=O)c(C(=O)C2=C(O)CCCC2=O)nc2ccccc21 [Compound I-102] | 5 | 5 | 4 |  |  |  | 5 | 5 | 5 | 5 | 5 |  |  |  |
| O=C1CCCC(O)=C1C(=O)c1ccc2ccccc2n1 [comparative compound B, reference compound] |  |  |  | 0 | 5 | 1 | 2 | 2 |  |  |  | 0 | 0 | 0 |
| O=C1CCCC(O)=C1C(=O)c1nc2ccccc2n(-c2ccc3c(c2)OC(F)(F)O3)c1=O [I-207] | 5 | 4 | 5 |  |  |  | 5 | 5 | 5 | 5 | 5 |  |  |  |
| Cc1ccc(-n2c(=O)c(C(=O)C3=C(O)CCCC3=O)nc3ccccc32)cc1F [II-213] | 5 | 5 | 5 | 4 | 5 | 5 | 5 | 5 |  |  |  |  |  |  |
| O=C1CCCC(O)=C1C(=O)c1nc2ccccc2n(Cc2ccccc2)c1=O [Compound I-107] | 5 | 4 | 5 |  |  |  | 5 | 5 | 4 | 5 | 5 |  |  |  |
| N#Cc1ccc(-n2c(=O)c(C(=O)C3=C(O)CCCC3=O)nc3ccccc32)cc1 [II-137] | 5 | 5 | 5 | 5 | 5 | 5 | 5 | 5 |  |  |  |  |  |  |
| Cn1c(=O)c(C(=O)C2=C(O)CCCC2=O)nc2ccc(Cl)cc21 [I-227] | 5 | 5 | 5 |  |  |  | 5 | 5 | 4 | 5 | 5 |  |  |  |
| O=C1CCCC(O)=C1C(=O)c1nc2ccccc2n(-c2ccc3occc3c2)c1=O [I-277] | 5 | 5 | 5 |  |  |  | 4 | 5 | 5 | 5 | 5 |  |  |  |
| COc1ccc(-n2c(=O)c(C(=O)C3=C(O)CCCC3=O)nc3c(F)cc(F)cc32)cn1 [I-283] | 5 | 4 | 5 |  |  |  | 5 | 5 | 4 | 5 | 5 |  |  |  |
| O=C1CCCC(O)=C1C(=O)c1nc2ccccc2n(-c2ccc(C(F)(F)F)cn2)c1=O [I-179] | 5 | 5 | 5 |  |  |  | 5 | 5 | 5 | 5 | 5 |  |  |  |
| Cn1c(=O)c(C(=O)C2=C(O)CCCC2=O)nc2cc(Cl)ccc21 [I-225] | 4 | 5 | 5 |  |  |  | 5 | 5 | 4 | 5 | 5 |  |  |  |
| Cn1c(=O)c(C(=O)C2=C(O)CCCC2=O)nc2ccc(F)cc21 [I-221] | 5 | 5 | 5 |  |  |  | 5 | 5 | 4 | 5 | 5 |  |  |  |
